Source: patent publication US20210238197A1, “NOVEL OXOQUINOLIZINE COMPOUNDS FOR THE TREATMENT AND PROPHYLAXIS OF BACTERIAL INFECTION” (Hoffmann-La Roche Inc., priority 2018, published 2021)
pIC50: −log10 of the molar value. In brackets after ≈: the same amount, converted by molar mass. Read-outs that look alike come from different tables or passages of the source.

Columns and labels:
S. aureus (ATCC29213) = assay: 50% growth inhibitory concentration (IC50) determination assay, S. aureus; type: cell-based; details: Iso-Sensitest broth, growth by OD 600 nm over 16 h, <0.098 = detection limit
Method: (§1) The in vitro antimicrobial activity of the compounds against S. aureus (ATCC29213), K. pneumoniae (ATCC10031), and A. baumannii (ATCC17978), was determined according to the following procedure: The assay used a 10-points Iso-Sensitest broth medium to measure quantitatively the in vitro activity of the compounds against S. aureus ATCC29213, K. pneumoniae ATCC 10031, and A. baumannii ATCC17978. Stock compounds in DMSO were serially two-fold diluted (range from 50 to 0.097 μM final concentration) in 384 wells microtiter plates and inoculated with 49 μL the bacterial suspension in Iso-Sensitest broth medium to have a final cell concentration of ˜5×10^5 CFU/mL in a final volume/well of 50 μL/well. Microtiter plates were incubated at 35±2° C. Bacterial cell growth was determined with the measurement of optical density at λ=600 nm each 20 minutes over a time course of 16 h.

[1] = tested on: K. pneumoniae (ATCC10031); assay: 50% growth inhibitory concentration (IC50) determination assay, K. pneumoniae; type: cell-based; details: Iso-Sensitest broth, growth by OD 600 nm over 16 h, <0.098 = detection limit
Method: as §1

A. baumannii (ATCC17978) = assay: 50% growth inhibitory concentration (IC50) determination assay, A. baumannii; type: cell-based; details: Iso-Sensitest broth, growth by OD 600 nm over 16 h, <0.098 = detection limit
Method: as §1

[2] = tested on: multiple species and strains; assay: microbe, parasite or virus in culture; parameters: MIC S9 / MIC S7 / MIC S11 / MIC S8 / MIC S10: unit not given beside the values; details: for MIC S9: E. coli ATCC 35218
Method: The MIC of antibacterial compounds against multiple species and strains was determined using the broth microdilution method according to M07-A10 Clinical and Laboratory Standards Institute (CLSI) guidelines (CLSI (2015) Methods for dilution antimicrobial susceptibility tests for bacteria that grow aerobically; Approved Standard, Tenth Edition. CLSI Document M7-A10 (ISBN 1-56238-987-4). Wayne, Pa.: Clinical and Laboratory Standards Institute, 19087, USA.). In short, bacterial strain preparation was performed on D1 and D2. […] 5-10 well-isolated colonies of similar morphology were selected and re-streaked onto fresh agar plates using sterile loops and incubated for 20-24 hr at 35±2° C. Bacterial strains were subcultured two times to ensure fresh inoculums for MIC screening. […] Alternatively, 1-2 colonies were transferred into 500 μL of saline and OD600 was adjusted to ˜0.1 using an OD meter. Bacterial inoculum was diluted by 1:280 for Gram-positive strains and 1:400 for Gram-negative strains into corresponding medium broth (CAMHB, CAMHB+3% lysed horse blood, HTM) (e.g. 35.6 μL of inoculum into 10 mL of CAMHB or 25 μL of inoculum into 10 mL of CAMHB). For compound plate, the compound stock solutions were prepared in 100% DMSO on the day of MIC screening and used immediately. Compound stock concentration=[(highest testing concentration)×100 μL/2 μL] (e.g. if the required highest testing concentration is 64 μg/mL in assay plates, stock concentration=64 μg/mL×100 μL/2 μL=3.2 mg/mL). […] 1 μL of each well was transferred in a new MTP, which served as the test plate by subsequent inoculation. The bacterial suspension prepared above is dispensed at 98 μL/well within 15 minutes after preparation. Negative controls (lack of bacterial cells) and growth control wells (lack of compound) were included in all plates. MTPs were incubated for 18-24 hours at 35±2° C. in ambient air. The MIC was recorded and CFUs were calculated on Day 4. The assay plate was placed on the top of MIC reader, and the magnification mirror was adjusted to read each wells, recording growth status as raw data. Photo images of each assay plates were recorded using Q Count 530 (Spiral Biotech). The MIC value of each compound, expressed as μg/mL, was determined as the lowest concentration required for complete growth inhibition (no visible growth).

[3] = Cytotoxicity assay (HepG2, CellTiter-Blue); type: cell-based; details: human; HepG2 cells, 3 days treatment; >100 = detection limit
Method: The cytotoxicity of compounds of present invention was assessed by HepG2 assay. HepG2 cells (ATCC RB-8065™) were seeded into 96-well plates (1.2×10^4 cells per well) and treated with compounds for 3 days, cell viability was measured at day 3 post compound treatment using the CellTiter-Blue® Cell Viability Assay (Promega, Cat. No. G8082). […], of Cell titer blue buffer were added to each well of the cells, which were incubated for 3 hours at 37° C., and the fluorescence value was measured by a plate reader (Molecular Device SpectraMax M2). The CC50 value of each compound is plotted with GraphPad Prism using four parameter logistic equation.

[4] = Staphylococcus aureus, ATCC29213
[5] = Klebsiella pneumoniae, ATCC10031
[6] = Acinetobacter baumannii, ATCC17978
[7] = Acinetobacter baumannii, ATCC19606, read-out: MIC S1, A. baumannii ATCC 19606
[8] = Acinetobacter baumannii, ATCC51432, read-out: MIC S2, A. baumannii ATCC 51432
[9] = Acinetobacter baumannii, ATCCBAA747, read-out: MIC S3, A. baumannii ATCC BAA-747
[10] = Escherichia coli, ATCC25922, read-out: MIC S11, E. coli ATCC 25922
[11] = Escherichia coli, ATCCBAA2340, read-out: MIC S10, E. coli ATCC BAA-2340
[12] = Klebsiella pneumoniae, ATCC10031, read-out: MIC S4, K. pneumoniae ATCC 10031
[13] = Klebsiella pneumoniae, ATCC700603, read-out: MIC S5, K. pneumoniae ATCC 700603
[14] = Klebsiella pneumoniae, ATCCBAA2146, read-out: MIC S6, K. pneumoniae ATCC BAA-2146
[15] = Pseudomonas aeruginosa, ATCC27853, read-out: MIC S7, P. aeruginosa ATCC 27853
[16] = Pseudomonas aeruginosa, ATCCBAA2113, read-out: MIC S8, P. aeruginosa ATCC BAA-2113

Structure (SMILES)	MIC S9 [2]	pIC50 (S. aureus (ATCC29213); [4])	pIC50 [1, 5]	pIC50 (A. baumannii (ATCC17978); [6])	MIC [2, 7]	MIC [2, 8]	MIC [2, 9]	MIC [2, 10]	MIC [2, 11]	MIC [2, 12]	MIC [2, 13]	MIC [2, 14]	MIC [2, 15]	MIC [2, 16]	other results
CNc1cc(F)c(C#N)c2c1[nH]c1ncc(-c3ccc4ccc(C(=O)O)c(=O)n4c3)c(N3C[C@H]4CCN(C)[C@H]4C3)c12 (single isomer, unassigned) [Example 1.16, 7-[4-[cis-1-methyl-2,3,3a,4,6,6a-hexahydropyrrolo[3,4-b]pyrrol-5-yl]-5-cyano-6-fluoro-8-(methylamino)-9H-pyrido[2,3-b]indol-3-yl]-4-oxo-quinolizine-3-carboxylic acid]	0.216														pIC50 (S. aureus (ATCC29213)): > 7.01; pIC50 [1]: > 7.01; pIC50 (A. baumannii (ATCC17978)): > 7.01; MIC S1 ([2]; A. baumannii ATCC 19606): 0.431; MIC S2 ([2]; A. baumannii ATCC 51432): 0.216; MIC S3 ([2]; A. baumannii ATCC BAA-747): 0.216; MIC S11 ([2]; E. coli ATCC 25922): 0.040; MIC S10 ([2]; E. coli ATCC BAA-2340): 0.216; MIC S4 ([2]; K. pneumoniae ATCC 10031): 0.027; MIC S5 ([2]; K. pneumoniae ATCC 700603): 1.724; MIC S6 ([2]; K. pneumoniae ATCC BAA-2146): 1.724; MIC S7 ([2]; P. aeruginosa ATCC 27853): 0.431; MIC S8 ([2]; P. aeruginosa ATCC BAA-2113): 3.447
CNc1cc(F)c(F)c2c1[nH]c1ncc(-c3ccc4ccc(C(=O)O)c(=O)n4c3)c(N3CC[C@@]4(C[C@@H]4N)C3)c12 (single isomer, unassigned) [Example 4.01A]	0.297	> 7.01	> 7.01	> 7.01	0.445 µg/mL (≈ 0.839 µM)	0.445 µg/mL (≈ 0.839 µM)	0.592 µg/mL (≈ 1.12 µM)	0.111 µg/mL (≈ 0.209 µM)	0.297 µg/mL (≈ 0.56 µM)	0.074 µg/mL (≈ 0.139 µM)	2.37 µg/mL (≈ 4.47 µM)	2.37 µg/mL (≈ 4.47 µM)	0.592 µg/mL (≈ 1.12 µM)	1.19 µg/mL (≈ 2.24 µM)	
CNc1cc(F)c(F)c2c1[nH]c1ncc(-c3ccc4ccc(C(=O)O)c(=O)n4c3)c(N(C)C)c12 [Example 1.01, 7-(4-(Dimethylamino)-5,6-difluoro-8-(methylamino)-9H-pyrido[2,3-b]indol-3-yl)-4-oxo-411-quinolizine-3-carboxylic acid]	0.113	> 7.01	> 7.01	> 7.01	0.057 µg/mL (≈ 0.123 µM)	0.45 µg/mL (≈ 0.971 µM)	0.225 µg/mL (≈ 0.485 µM)	0.169 µg/mL (≈ 0.365 µM)	0.225 µg/mL (≈ 0.485 µM)	0.057 µg/mL (≈ 0.123 µM)	0.45 µg/mL (≈ 0.971 µM)	1.8 µg/mL (≈ 3.89 µM)	0.901 µg/mL (≈ 1.94 µM)	0.901 µg/mL (≈ 1.94 µM)	
CNc1cc(F)c(F)c2c1[nH]c1ncc(-c3ccc4ccc(C(=O)O)c(=O)n4c3)c(N3CC4[C@H](CC[C@H]4N(C)C)C3)c12 (stereo partly drawn) [Example 1.05, 7-[4-[cis-(4R)-4-(dimethylamino)-3,3a,4,5,6,6a-hexahydro-1H-cyclopenta[c]pyrrol-2-yl]-5,6-difluoro-8-(methylamino)-9H-pyrido[2,3-b]indol-3-yl]-4-oxo-quinolizine-3-carboxylic acid]															CC50 at 3 days [3]: 15500 nM
CNc1cc(F)c(Cl)c2c1[nH]c1ncc(-c3ccc4ccc(C(=O)O)c(=O)n4c3)c(N3CC[C@H]4CN(C)C[C@H]43)c12 [Example 1.07, 7-(5-chloro-6-fluoro-8-(methylamino)-4-((3aS,6aS)-5-methyl-2,3,3a,4,6,6a-hexahydropyrrolo[2,3-c]pyrrol-1-yl)-9H-pyrido[2,3-b]indol-3-yl)-4-oxo-4H-quinolizine-3-carboxylic acid]	0.132	> 7.01	> 7.01	> 7.01	0.066 µg/mL (≈ 0.118 µM)	0.066 µg/mL (≈ 0.118 µM)	0.263 µg/mL (≈ 0.469 µM)	0.049 µg/mL (≈ 0.0873 µM)	0.132 µg/mL (≈ 0.235 µM)	0.033 µg/mL (≈ 0.0588 µM)	1.05 µg/mL (≈ 1.88 µM)	0.527 µg/mL (≈ 0.939 µM)	0.527 µg/mL (≈ 0.939 µM)	8.44 µg/mL (≈ 15 µM)	
CNc1cc(F)c(Cl)c2c1[nH]c1ncc(-c3ccc4ccc(C(=O)O)c(=O)n4c3)c(N3C[C@H]4CC[C@@H](N(C)C)[C@H]4C3)c12 [Example 1.08, 7-[4-[cis-(4R)-4-(dimethylamino)-3,3a,4,5,6,6a-hexahydro-1H-cyclopenta[c]pyrrol-2-yl]-5-chloro-6-fluoro-8-(methylamino)-9H-pyrido[2,3-b]indol-3-yl]-4-oxo-quinolizine-3-carboxylic acid]	0.548	> 7.01	> 7.01	> 7.01	0.274 µg/mL (≈ 0.465 µM)	0.274 µg/mL (≈ 0.465 µM)	0.548 µg/mL (≈ 0.93 µM)	0.206 µg/mL (≈ 0.35 µM)	0.548 µg/mL (≈ 0.93 µM)	0.069 µg/mL (≈ 0.117 µM)	4.39 µg/mL (≈ 7.46 µM)	2.2 µg/mL (≈ 3.73 µM)	2.2 µg/mL (≈ 3.73 µM)	4.39 µg/mL (≈ 7.46 µM)	
CNc1cc(F)c(F)c2c1[nH]c1ncc(-c3ccc4ccc(C(=O)O)c(=O)n4c3)c(N3C[C@H]4CCN(C)[C@H]4C3)c12 [Example 3.03A, 7-[4-[(3aR,6aR)-1-methyl-2,3,3a,4,6,6a-hexahydropyrrolo[3,4-b]pyrrol-5-yl]-5,6-difluoro-8-(methylamino)-9H-pyrido[2,3-b]indol-3-yl]-4-oxo-quinolizine-3-carboxylic acid]	0.425	> 7.01	> 7.01	> 7.01	0.106 µg/mL (≈ 0.195 µM)	0.212 µg/mL (≈ 0.389 µM)	0.212 µg/mL (≈ 0.389 µM)	0.08 µg/mL (≈ 0.147 µM)	0.425 µg/mL (≈ 0.78 µM)	0.027 µg/mL (≈ 0.0496 µM)	3.4 µg/mL (≈ 6.25 µM)	1.7 µg/mL (≈ 3.13 µM)	0.85 µg/mL (≈ 1.56 µM)	3.4 µg/mL (≈ 6.25 µM)	
CNc1cc(F)c(F)c2c1[nH]c1ncc(-c3ccc4ccc(C(=O)O)c(=O)n4c3)c(N3CC[C@H]4CCN(C)[C@H]4C3)c12 [Example 3.04A, 7-[4-[(3aR,7aR)-1-methyl-3,3a,4,5,7,7a-hexahydro-2H-pyrrolo[2,3-c]pyridin-6-yl]-5,6-difluoro-8-(methylamino)-9H-pyrido[2,3-b]indol-3-yl]-4-oxo-quinolizine-3-carboxylic acid]	0.218	> 7.01	> 7.01	> 7.01	0.218 µg/mL (≈ 0.39 µM)	0.218 µg/mL (≈ 0.39 µM)	0.218 µg/mL (≈ 0.39 µM)	0.082 µg/mL (≈ 0.147 µM)	0.218 µg/mL (≈ 0.39 µM)	0.027 µg/mL (≈ 0.0483 µM)	1.75 µg/mL (≈ 3.13 µM)	1.75 µg/mL (≈ 3.13 µM)	0.436 µg/mL (≈ 0.781 µM)	3.49 µg/mL (≈ 6.25 µM)	
